Tests used:
Experiment in all cases: relative viability (nuclei count vs DMSO), 5 days (fraction); higher = more cells survive
[1] = compound: O=S(=O)(c1ccccc1)N(CC(F)(F)F)c1ccc(C(O)(C(F)(F)F)C(F)(F)F)cc1 + CCNC(=O)c1noc(-c2cc(C(C)C)c(O)cc2O)c1-c1ccc(CN2CCOCC2)cc1 [Luminespib] (partner 0.01 µM)
In short: (§1)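 Relative viability equals treated-well nuclei counts divided by vehicle-well nuclei counts. Counts came from 4× images of lung cancer cell lines grown in 1536-well plates for 5 days after pin-tool dosing on the day after seeding. Dosing used one drug alone or a fixed anchor-drug dose plus five library-drug doses (not always all listed) in √10 steps, and values are medians of duplicate plates.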

[2] = compound: O=S(=O)(c1ccccc1)N(CC(F)(F)F)c1ccc(C(O)(C(F)(F)F)C(F)(F)F)cc1 + Cc1nc(Nc2ncc(C(=O)Nc3c(C)cccc3Cl)s2)cc(N2CCN(CCO)CC2)n1 [Dasatinib] (partner 0.075 µM)
In short: as §1

[3] = compound: O=S(=O)(c1ccccc1)N(CC(F)(F)F)c1ccc(C(O)(C(F)(F)F)C(F)(F)F)cc1 + CC(C)C[C@H](NC(=O)[C@H](Cc1ccccc1)NC(=O)c1cnccn1)B(O)O [Bortezomib] (partner 0.002 µM)
In short: as §1

[4] = compound: O=S(=O)(c1ccccc1)N(CC(F)(F)F)c1ccc(C(O)(C(F)(F)F)C(F)(F)F)cc1 + Cc1cc(Nc2cc(N3CCN(C)CC3)nc(Sc3ccc(NC(=O)C4CC4)cc3)n2)n[nH]1 [Tozasertib] (partner 0.1 µM)
In short: as §1

[5] = compound: C1=CC2=C(C=CC(=C2)C=C3C(=O)NC(=NCC4=CC=CS4)S3)N=C1 [RO-3306] + COc1cc2c(Oc3ccc(NC(=O)C4(C(=O)Nc5ccc(F)cc5)CC4)cc3F)ccnc2cc1OCCCN1CCOCC1 [Foretinib] (partner 0.25 µM)
In short: as §1

| Cell Line | relative viability ([1]; first compound 0.8 µM) | relative viability ([1]; first compound 2.53 µM) | relative viability ([1]; first compound 8 µM) | relative viability ([2]; first compound 0.8 µM) | relative viability ([2]; first compound 2.53 µM) | relative viability ([2]; first compound 8 µM) | relative viability ([3]; first compound 0.8 µM) | relative viability ([3]; first compound 2.53 µM) | relative viability ([3]; first compound 8 µM) | relative viability ([4]; first compound 0.8 µM) | relative viability ([4]; first compound 2.53 µM) | relative viability ([4]; first compound 8 µM) | relative viability ([5]; first compound 0.01 µM) | relative viability ([5]; first compound 0.03162 µM) | relative viability ([5]; first compound 0.1 µM) | relative viability ([5]; first compound 0.3162 µM) | relative viability ([5]; first compound 1 µM) |
| --- | --- | --- | --- | --- | --- | --- | --- | --- | --- | --- | --- | --- | --- | --- | --- | --- | --- |
| NCI-H2009 | 1 | 0.878 | 0.787 | 0.241 | 0.249 | 0.302 | 0.91 | 0.891 | 0.929 | 0.749 | 0.57 | 0.679 | 1.32 | 1.24 | 1.2 | 1.19 | 1.2 |
| NCI-H1915 | 0.813 | 0.776 | 0.786 | 0.284 | 0.276 | 0.291 | 1.08 | 0.964 | 0.974 | 0.458 | 0.454 | 0.468 | 1.14 | 0.891 | 1.15 | 1.11 | 1.23 |
| EMC-BAC-2 | 1.28 | 1.18 | 1.17 | 0.368 | 0.325 | 0.353 | 1.07 | 1.1 | 1.02 | 0.293 | 0.284 | 0.28 | 0.977 | 0.892 | 0.976 | 1.03 | 1.05 |
| NCI-H2126 | 0.994 | 0.83 | 0.831 | 0.753 | 0.634 | 0.535 | 1.26 | 1.1 | 1.12 | 0.934 | 0.887 | 0.769 | 1.58 | 0.914 | 1.26 | 1.19 | 1.01 |
| NCI-H596 | 1.13 | 0.69 | 0.923 | 0.594 | 0.566 | 0.52 | 0.997 | 0.791 | 0.843 | 0.907 | 0.761 | 0.75 | 0.716 | 0.797 | 0.818 | 0.872 | 0.77 |
| NCI-H1650 | 0.184 | 0.2 | 0.231 | 0.343 | 0.316 | 0.389 | 0.203 | 0.187 | 0.194 | 0.348 | 0.404 | 0.346 | 1.73 | 0.858 | 0.917 | 1.11 | 0.723 |
| EKVX | 0.84 | 0.576 | 0.73 | 0.525 | 0.514 | 0.335 | 1.1 | 0.918 | 1.15 | 0.405 | 0.344 | 0.325 | 0.805 | 0.748 | 0.841 | 0.741 | 0.744 |
| NCI-H1975 | 0.205 | 0.201 | 0.311 | 0.353 | 0.339 | 0.298 | 0.327 | 0.415 | 0.299 | 0.781 | 0.622 | 0.659 | 0.975 | 1 | 1.02 | 0.985 | 0.793 |
| LXF-289 | 0.858 | 0.559 | 0.641 | 0.163 | 0.141 | 0.153 | 0.952 | 0.899 | 0.898 | 0.213 | 0.203 | 0.153 | 0.985 | 0.956 | 0.945 | 0.996 | 0.958 |
| RERF-LC-KJ | 1.29 | 1.17 | 1.17 | 0.753 | 0.652 | 0.641 | 1.12 | 0.95 | 1.02 | 0.5 | 0.445 | 0.523 | 0.844 | 0.683 | 0.795 | 0.906 | 0.958 |
| BEN | 0.343 | 0.289 | 0.182 | 0.252 | 0.275 | 0.333 | 0.843 | 0.844 | 0.866 | 0.615 | 0.549 | 0.508 | 0.513 | 0.684 | 0.664 | 0.673 | 0.747 |
| ABC-1 | 0.746 | 0.571 | 0.519 | 0.649 | 0.531 | 0.654 | 0.27 | 0.297 | 0.293 | 0.172 | 0.19 | 0.202 | 1.06 | 0.975 | 0.999 | 1.1 | 1.06 |
| H3255 | 0.734 | 0.753 | 0.767 | 0.292 | 0.309 | 0.362 | 0.564 | 0.708 | 0.761 | 0.629 | 0.663 | 0.66 | 0.798 | 0.711 | 0.758 | 0.848 | 0.898 |
| NCI-H1355 | 0.781 | 0.756 | 0.759 | 0.771 | 0.661 | 0.663 | 1.39 | 1.12 | 1.1 | 0.555 | 0.5 | 0.518 | 1.04 |  | 1.05 | 1.02 | 0.942 |
| COR-L 105 | 0.784 | 0.665 | 0.659 | 0.299 | 0.4 | 0.363 | 0.846 | 0.75 | 0.702 | 0.337 | 0.342 | 0.435 | 1.74 | 1.23 | 1.06 | 1.17 | 0.859 |
| NCI-H2228 | 0.154 | 0.165 | 0.122 | 0.415 | 0.401 | 0.363 | 1.13 | 0.872 | 0.906 | 0.265 | 0.176 | 0.183 | 0.759 | 0.808 | 0.954 | 0.641 | 0.635 |

| Cell Line | relative viability ([1]; first compound 0.8 µM) | relative viability ([1]; first compound 2.53 µM) | relative viability ([1]; first compound 8 µM) | relative viability ([2]; first compound 0.8 µM) | relative viability ([2]; first compound 2.53 µM) | relative viability ([2]; first compound 8 µM) | relative viability ([3]; first compound 0.8 µM) | relative viability ([3]; first compound 2.53 µM) | relative viability ([3]; first compound 8 µM) | relative viability ([4]; first compound 0.8 µM) | relative viability ([4]; first compound 2.53 µM) | relative viability ([4]; first compound 8 µM) | relative viability ([5]; first compound 0.01 µM) | relative viability ([5]; first compound 0.03162 µM) | relative viability ([5]; first compound 0.1 µM) | relative viability ([5]; first compound 0.3162 µM) | relative viability ([5]; first compound 1 µM) |
| --- | --- | --- | --- | --- | --- | --- | --- | --- | --- | --- | --- | --- | --- | --- | --- | --- | --- |
| NCI-H1437 | 1.12 | 0.903 | 0.831 | 0.327 | 0.297 | 0.287 | 0.485 | 0.423 | 0.588 | 0.411 | 0.337 | 0.275 | 1.38 | 1.21 | 1.28 | 1.28 | 1.25 |
| LOU-NH91 | 0.404 | 0.353 | 0.285 | 0.576 | 0.567 | 0.68 | 0.536 | 0.51 | 0.484 | 0.735 | 0.701 | 0.678 | 0.879 | 0.94 | 0.951 | 0.87 | 0.976 |
| LC-2-ad | 0.898 | 0.892 | 0.864 | 0.655 | 0.525 | 0.627 | 1.02 | 1.03 | 0.898 | 0.496 | 0.492 | 0.474 | 0.877 | 0.804 | 0.941 | 0.967 | 0.942 |
| PC-3 [JPC-3] | 0.654 | 0.717 | 0.679 | 1.03 | 1.05 | 0.972 | 0.642 | 0.743 | 0.744 | 0.819 | 0.838 | 0.767 | 1.01 | 1 | 1.01 | 1.07 | 1.03 |
| NCI-H1734 | 0.191 | 0.217 | 0.204 | 0.553 | 0.464 | 0.462 | 1.18 | 0.917 | 1.07 | 0.294 | 0.29 | 0.244 | 0.759 | 0.746 | 0.893 | 0.924 | 0.804 |
| NCI-H520 | 0.218 | 0.242 | 0.237 | 0.235 | 0.211 | 0.26 | 0.962 | 0.785 | 0.626 | 0.435 | 0.463 | 0.476 | 0.843 | 0.663 | 0.854 | 0.694 | 0.839 |
| HOP-62 | 0.903 | 0.907 | 0.862 | 0.716 | 0.552 | 0.544 | 0.39 | 0.634 | 0.93 | 0.392 | 0.35 | 0.26 | 1.2 | 1.07 | 1.05 | 1.05 | 1.1 |
| NCI-H650 | 1.01 | 0.854 | 0.853 | 0.368 | 0.425 | 0.479 | 0.832 | 0.776 | 0.823 | 0.778 | 0.771 | 0.748 | 0.989 | 0.94 | 1.01 | 1.07 | 1.02 |
| NCI-H1993 | 0.874 | 0.577 | 0.721 | 0.451 | 0.441 | 0.544 | 1.12 | 0.824 | 1.03 | 0.596 | 0.535 | 0.528 | 0.924 | 0.794 | 0.789 | 0.727 | 0.809 |
| NCI-H2023 | 0.921 | 0.638 | 0.535 | 0.547 | 0.434 | 0.369 | 1 | 0.899 | 0.831 | 0.335 | 0.289 | 0.249 | 1.17 | 0.71 | 0.818 | 0.702 | 0.943 |
| NCI-H647 | 0.275 | 0.19 | 0.233 | 0.142 | 0.162 | 0.208 | 1.27 | 1.03 | 0.967 | 0.425 | 0.325 | 0.167 | 1.29 | 1.12 | 1.12 | 1.27 | 1.24 |
| EPLC-272H | 0.166 | 0.497 | 0.265 | 0.323 | 0.398 | 0.384 | 0.964 | 0.899 | 0.656 | 0.366 | 0.379 | 0.312 | 0.723 | 0.541 | 0.598 | 0.683 | 0.533 |
| NCI-H3122 | 0.0579 | 0.0537 | 0.115 | 0.725 | 0.525 | 0.817 | 0.989 | 0.963 | 0.907 | 0.419 | 0.424 | 0.489 | 0.987 | 0.984 | 0.94 | 0.969 | 1.09 |
| NCI-H661 | 0.89 | 0.866 | 0.821 | 1.03 | 0.886 | 0.832 | 0.885 | 0.883 | 0.642 | 0.333 | 0.34 | 0.361 | 1.01 | 1.07 | 0.981 | 0.985 | 0.999 |
| NCI-H322M | 1.13 | 0.946 | 1 | 0.261 | 0.267 | 0.288 | 1.48 | 1.02 | 1.23 | 0.562 | 0.575 | 0.467 | 1.05 | 0.815 | 0.896 | 0.962 | 1.02 |

From the supplement of paper PMC10307832
